Measured values as given in BindingDB's records for doi:10.1016/j.bmcl.2011.12.067 (Dalian University of Technology, 2012).

Molecular target: Epidermal growth factor receptor (Homo sapiens, UniProt P00533)
Assay: Inhibition of wild-type EGFR expressed using baculovirus expression system by ELISA

Epidermal growth factor receptor, sequence (P00533 whole entry): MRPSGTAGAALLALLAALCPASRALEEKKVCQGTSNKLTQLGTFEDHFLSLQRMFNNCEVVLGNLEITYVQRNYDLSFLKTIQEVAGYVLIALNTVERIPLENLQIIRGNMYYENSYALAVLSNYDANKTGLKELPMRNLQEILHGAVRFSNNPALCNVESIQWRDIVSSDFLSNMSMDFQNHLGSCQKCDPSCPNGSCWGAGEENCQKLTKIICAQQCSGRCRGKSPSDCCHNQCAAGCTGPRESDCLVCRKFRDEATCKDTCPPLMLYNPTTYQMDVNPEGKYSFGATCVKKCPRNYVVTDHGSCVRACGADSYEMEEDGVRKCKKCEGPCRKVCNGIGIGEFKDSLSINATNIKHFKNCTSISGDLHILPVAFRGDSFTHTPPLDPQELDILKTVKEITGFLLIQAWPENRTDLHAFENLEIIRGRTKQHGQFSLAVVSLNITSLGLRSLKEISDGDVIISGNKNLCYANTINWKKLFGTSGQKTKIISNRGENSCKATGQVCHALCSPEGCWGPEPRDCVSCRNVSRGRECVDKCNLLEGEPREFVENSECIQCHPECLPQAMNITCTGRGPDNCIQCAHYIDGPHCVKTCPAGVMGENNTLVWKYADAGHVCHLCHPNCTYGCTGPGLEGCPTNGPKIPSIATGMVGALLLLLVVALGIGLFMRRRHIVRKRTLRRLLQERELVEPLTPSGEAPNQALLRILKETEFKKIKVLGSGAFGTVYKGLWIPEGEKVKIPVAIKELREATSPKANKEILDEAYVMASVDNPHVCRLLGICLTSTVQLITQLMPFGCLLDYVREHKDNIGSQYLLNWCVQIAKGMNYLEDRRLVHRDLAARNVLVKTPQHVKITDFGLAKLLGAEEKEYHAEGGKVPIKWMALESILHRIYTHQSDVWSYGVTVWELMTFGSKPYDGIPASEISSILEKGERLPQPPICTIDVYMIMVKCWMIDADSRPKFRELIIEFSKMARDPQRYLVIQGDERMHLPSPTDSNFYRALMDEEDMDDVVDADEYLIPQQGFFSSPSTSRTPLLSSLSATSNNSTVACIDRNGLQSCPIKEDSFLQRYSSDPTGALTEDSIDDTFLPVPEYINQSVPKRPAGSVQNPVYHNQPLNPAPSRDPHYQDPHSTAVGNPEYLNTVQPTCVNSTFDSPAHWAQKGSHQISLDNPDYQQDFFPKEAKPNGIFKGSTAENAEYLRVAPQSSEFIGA

IC50, > 100 µM:
CNc1nc(N=NCc2ccc(OC)cc2)nc(Nc2ccccc2)n1
CNc1nc(N=NCc2ccc(O)cc2)nc(Nc2ccccc2)n1
Cn1cc(NC(=O)CN=O)c(=O)n1-c1ccccc1
